In US12552811B2, “Immunosuppressant, and preparation method therefor and use thereof” (Abbisko Therapeutics Co., Ltd., priority 2020, dated 2026):

Test: Jurkat reporter gene cellular assay
Assay type: cell-based
Conditions: Homo sapiens; Jurkat/NF-κB-luc/PD1 + Raji-PD-L1 coculture, OKT3 1 μg/mL, 6 hrs, activation fold; read-out: Cell Activity EC50
Procedure: The effect of compounds of the examples of the present invention and positive compounds on the interaction between PD-1 and PD-L1 expressed on cell surfaces, and the related influence on T cell functions, were determined by a Jurkat reporter gene cellular assay.
Briefly, the reporter gene plasmid of NF-κB-luc and the plasmid of human PD-1 were transfected into Jurkat cells to establish a stably transfected cell line capable of stably expressing both PD-1 and NF-κB-Luc reporter genes; the expression level of PD-1 on the cell surface was confirmed by flow cytometry; and the expression of the reporter gene was confirmed via the response of the reporter gene stimulated by OKT-3 and Raiji cells.
In addition, the plasmid of human PD-L1 was transfected into Raji cells to obtain a cell line capable of stably expressing PD-L1. Jurkat/NF-κB-luc/PD1 cells and Raji-PD-L1 cells were then cocultured and stimulated with OKT-3. On this basis, the compounds were added, and the enhancement of the signal pathway of T cell activation by the inhibitory effect of the compounds on the interaction between PD-1 and PD-L1 was evaluated by readings of reporter gene responses. The specific experimental process was as follows: • 1) 30 μL of compound or antibody solution was added to each well of a white 96-well plate (coming, 3610) at different diluted concentrations, and 10 μL of OKT3 (Biolegend, 317326) was then added (the final concentration of OKT3: 1 μg/mL); • 2) 20 μL of Raji-PD-L1 cell suspension was added to each well with 5*10^4 cells for each well, and was incubated in an incubator for 20 min: • 3) 20 μL of Jurkat/NF-κb-luc/PD-1 cell suspension was added to each well with 5*10^4 cells for each well, and well mixed, and 6 hrs later, Bright-glo (Promega, E2620) was applied and plates were read on Envision; • 4) The reading of each well treated with the compound was compared with the reading of each well treated with DMSO to obtain the activation fold of the compound; • 5) EC50 values of compounds and positive compounds of the examples of the present invention were determined by non-linear regression analysis of activation folds at different compound concentrations.

Row | Structure (SMILES) | EC50
1 | CN(C)C(=O)CCCCN1CCc2cc(C(=O)Nc3cccc(-c4cccc(NC(=O)c5nc6c(n5C)CCN(CCC57CCC(C(=O)O)(CC5)C7)C6)c4Cl)c3Cl)ncc2C1 [Example 16, 4-(2-(2-((2,2′-dichloro-3′-(7-(5-(dimethylamino)-5-oxopentyl)-5,6,7,8-tetrahydro-2,7-naphthyridine-3-carboxamido)-[1,1′-biphenyl]-3-yl)carbamoyl)-1-methyl-1,4,6,7-tetrahydro-5H-imidazo[4,5-c]pyridin-5-yl)ethyl)bicyclo[2.2.1]heptane-1-carboxylic acid] | 83.5 nM
2 | Cn1c(C(=O)Nc2cccc(-c3cccc(NC(=O)c4cc5c(cn4)CN(CC4(O)CC4)CC5)c3Cl)c2Cl)nc2c1CCN(CCC13CCC(C(=O)O)(CC1)C3)C2 [Example 62, 4-(2-(2-((2,2′-dichloro-3′-(7-((1-hydroxycyclopropyl)methyl)-5,6,7,8-tetrahydro-2,7-naphthyridine-3-carboxamido)-[1,1′-biphenyl]-3-yl)carbamoyl)-1-methyl-1,4,6,7-tetrahydro-5H-imidazo[4,5-c]pyridin-5-yl)ethyl)bicyclo[2.2.1]heptane-1-carboxylic acid] | 76.3 nM
3 | Cn1c(C(=O)Nc2cccc(-c3cccc(NC(=O)c4cc5c(cn4)CN([C@H]4CCC[C@@H]4O)CC5)c3Cl)c2Cl)nc2c1CCN(CCC13CCC(C(=O)O)(CC1)C3)C2 [Example 61, 4-(2-(2-((2,2′-dichloro-3′-(7-((1S,2S)-2-hydroxycyclopentyl)-5,6,7,8-tetrahydro-2,7-naphthyridine-3-carboxamido)-[1,1′-biphenyl]-3-yl)carbamoyl)-1-methyl-1,4,6,7-tetrahydro-5H-imidazo[4,5-c]pyridin-5-yl)ethyl)bicyclo[2.2.1]heptane-1-carboxylic acid] | 83.2 nM
4 | CCOC(=O)[C@@H](CO)NCc1cnc2c(Nc3cccc(-c4cccc(/C=C(\F)c5cc6c(cn5)CN(C(C)C)CC6)c4Cl)c3Cl)nccc2c1 [Example 73, ethyl (Z)-((8-((2,2′-dichloro-3′-(2-fluoro-2-(7-isopropyl-5,6,7,8-tetrahydro-2,7-naphthyridin-3-yl)vinyl)-[1,1′-biphenyl]-3-yl)amino)-1,7-naphthyridin-3-yl)methyl)-D-serinate] | 7640 nM

The remaining lines, values ahead:

Row | EC50 | Structure (SMILES)
5 | 90.7 nM | CC(C)N1CCc2cc(C(=O)Nc3cccc(-c4cccc(NC(=O)c5nc6c(n5C)CCN(CCC57CCC(C(=O)O)(CC5)C7)C6)c4Cl)c3Cl)ncc2C1C (stereo not shown) [Example 18, 4-(2-(2-((2,2′-dichloro-3′-(7-isopropyl-8-methyl-5,6,7,8-tetrahydro-2,7-naphthyridine-3-carboxamido)-[1,1′-biphenyl]-3-yl)carbamoyl)-1-methyl-1,4,6,7-tetrahydro-5H-imidazo[4,5-c]pyridin-5-yl)ethyl) bicyclo[2.2.1]heptane-1-carboxylic acid]
6 | 504 nM | O=C1CC[C@@H](CNCc2cnc3c(Nc4cccc(-c5cccc(NC(=O)c6cc7c(cn6)CN(CC68CCC(C(=O)O)(CC6)C8)CC7)c5Cl)c4Cl)nccc3c2)N1 [Example 78, (S)-4-((6-((2,2′-dichloro-3′-((3-((((5-oxopyrrolidin-2-yl)methyl)amino)methyl)-1,7-naphthyridin-8-yl)amino)-[1,1′-biphenyl]-3-yl)carbamoyl)-3,4-dihydro-2,7-naphthyridin-2(1H)-yl)methyl)bicyclo[2.2.1] heptane-1-carboxylic acid]
7 | 946 nM | C[C@@H](O)CN1CCc2cc(/C(F)=C/c3cccc(-c4cccc(Nc5nccc6cc(CN[C@H](CO)C(=O)O)cnc56)c4Cl)c3Cl)ncc2C1 [Example 70, ((8-((2,2′-dichloro-3′-((Z)-2-fluoro-2-(7-((R)-2-hydroxypropyl)-5,6,7,8-tetrahydro-2,7-naphthyridin-3-yl)vinyl)-[1,1′-biphenyl]-3-yl)amino)-1,7-naphthyridin-3-yl)methyl)-D-serine]
